# Data published in patent US12350259B2, “Methods of treating migraine” (Allergan Pharmaceuticals International Limited, priority 2021, dated 2025).
# Like-named read-outs stand apart in the source and are kept apart here.
# What was measured:
# [1] = Hepatic impairment study: safety and tolerability; assay type: in vivo, human; details: single 60 mg dose, all hepatic function groups
# Description: A multicenter, non-randomized, open-label, parallel-group, single-dose study was carried out to evaluate the PK, safety, and tolerability profiles of atogepant in participants with impaired hepatic function and matched healthy participants with normal hepatic function after a single 60-mg oral dose of atogepant. The primary outcome measures were PK parameters of atogepant derived from plasma concentrations. Safety measures were AEs, clinical laboratory determinations, vital sign parameters, electrocardiographic results, and physical examination findings.
# P-gp = P-gp (Homo sapiens, UniProt P08183); assay: Transporter inhibition; assay type: in vitro ADME; details: clinically relevant concentrations
# P-gp, sequence (P08183 whole entry): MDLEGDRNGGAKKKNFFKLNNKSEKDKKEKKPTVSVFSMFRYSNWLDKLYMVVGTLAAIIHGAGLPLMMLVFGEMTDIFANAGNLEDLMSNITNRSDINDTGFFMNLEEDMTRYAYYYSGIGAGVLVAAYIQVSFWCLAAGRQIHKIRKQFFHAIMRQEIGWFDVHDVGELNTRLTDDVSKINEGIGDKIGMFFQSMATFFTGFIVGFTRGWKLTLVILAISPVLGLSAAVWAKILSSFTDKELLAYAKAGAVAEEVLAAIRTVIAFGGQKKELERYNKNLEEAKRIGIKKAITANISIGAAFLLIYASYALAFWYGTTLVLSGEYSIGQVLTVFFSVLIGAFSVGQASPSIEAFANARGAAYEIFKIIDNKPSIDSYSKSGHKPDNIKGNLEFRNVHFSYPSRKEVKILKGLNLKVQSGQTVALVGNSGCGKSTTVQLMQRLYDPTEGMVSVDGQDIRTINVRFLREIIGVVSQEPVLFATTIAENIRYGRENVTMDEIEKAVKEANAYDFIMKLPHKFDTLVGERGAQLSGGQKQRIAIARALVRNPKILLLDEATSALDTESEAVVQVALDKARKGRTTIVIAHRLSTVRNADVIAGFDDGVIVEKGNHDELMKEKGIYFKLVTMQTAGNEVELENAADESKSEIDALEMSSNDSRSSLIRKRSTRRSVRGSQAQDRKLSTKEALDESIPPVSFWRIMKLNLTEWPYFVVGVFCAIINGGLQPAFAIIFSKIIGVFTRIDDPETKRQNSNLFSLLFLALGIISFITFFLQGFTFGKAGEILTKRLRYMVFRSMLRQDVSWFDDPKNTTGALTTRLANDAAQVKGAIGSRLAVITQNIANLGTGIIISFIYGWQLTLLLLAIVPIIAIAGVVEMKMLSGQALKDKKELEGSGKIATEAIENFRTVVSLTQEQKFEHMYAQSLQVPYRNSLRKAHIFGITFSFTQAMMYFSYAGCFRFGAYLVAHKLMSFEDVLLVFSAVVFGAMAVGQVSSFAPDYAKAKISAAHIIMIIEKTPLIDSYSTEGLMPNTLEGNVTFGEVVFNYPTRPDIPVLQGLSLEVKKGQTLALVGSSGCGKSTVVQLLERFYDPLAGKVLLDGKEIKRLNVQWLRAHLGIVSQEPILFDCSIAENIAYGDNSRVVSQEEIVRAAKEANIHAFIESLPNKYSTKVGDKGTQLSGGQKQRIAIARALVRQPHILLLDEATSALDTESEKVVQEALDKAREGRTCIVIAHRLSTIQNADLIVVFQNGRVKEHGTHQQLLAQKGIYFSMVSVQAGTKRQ
# [2] = Hepatic impairment study: atogepant plasma PK; assay type: in vivo, human; details: for AUC(0-t) / AUC(0-inf) / Cmax / Tmax / half-life / Vd/F: human, plasma, 60 mg; for Vd/F: read-out: Vz/F
# Description: A multicenter, non-randomized, open-label, parallel-group, single-dose study was carried out to evaluate the PK, safety, and tolerability profiles of atogepant in participants with impaired hepatic function and matched healthy participants with normal hepatic function after a single 60-mg oral dose of atogepant. The primary outcome measures were PK parameters of atogepant derived from plasma concentrations. Safety measures were AEs, clinical laboratory determinations, vital sign parameters, electrocardiographic results, and physical examination findings. […] PK blood samples were collected for up to 72 hours after dose administration. The total duration of study participation for each participant was 5 days (Day −1 to Day 4), excluding the screening visit. […] Participants with moderate hepatic impairment were enrolled after 4 participants with mild hepatic impairment completed the study; participants with severe hepatic impairment were enrolled after 4 participants with moderate hepatic impairment completed the study. Participants with normal hepatic function were recruited after all patients with hepatic impairment were enrolled in the study. The safety and tolerability of atogepant was established in each group before the subsequent group was enrolled. Participants were enrolled into four groups: Group I (Mild Hepatic Impairment); Group II (Moderate Hepatic Impairment); Group III (Severe Hepatic Impairment); and Group IV (Normal Hepatic Impairment). Participants with normal hepatic function were recruited after the participants with hepatic impairment were enrolled in the study so that participants could be matched as closely as possible by age range, weight range, and gender among groups. Participants were matched specifically according to rage range, not exceeding 5 years between the means of the normal group and the 3 impaired hepatic function groups combined; weight range, which deviated <20% between the means of the normal group and the 3 impaired hepatic function groups combined; and gender, as much as possible to match the ratio of the normal group to the 3 impaired hepatic function groups combined. Participants received a single, oral, 60 mg tablet of atogepant. Each participant received only one dose of the study intervention. Participants received the atogepant tablet with 240 mL of water at the study center under fasted conditions. Following dose administration, participants continued their fast and remained seated upright and awake for 4 hours. Sampling for atogepant plasma concentrations was done starting on Day 1 at 0 hour (predose) and at 0.5, 1, 1.5, 2, 3, 4, 6, 8, 12, 16, 24, 36, 48, and 72 hours post dose.
# [3] = Atogepant-esomeprazole drug interaction study: atogepant PK; assay type: in vivo, human; details: for Tmax: human, plasma, oral
# Description: A phase 1, open-label, 2-intervention, single-sequence, nonrandomized, crossover, drug-drug interaction study was conducted to evaluate the effects of multiple-dose esomeprazole magnesium 40 mg on pharmacokinetics (PK) and safety of co-administered single-dose atogepant 60 mg in healthy adults.
# In this study, healthy adult participants received single-dose oral atogepant 60 mg on day 1, followed by once-daily esomeprazole 40 mg on days 7-13, co-administered with single-dose atogepant on day 12. Samples for atogepant PK analysis were collected on days 1 and 12. PK parameters calculated from atogepant plasma concentrations included peak plasma concentration (Cmax); time to Cmax (tmax); area under plasma concentration-time curve from time 0 to […] (AUC0-t) and from time 0 to infinity (AUC0-∞). PK parameters of atogepant alone vs. co-administered with esomeprazole were compared using a mixed-effects model. Statistical significance was achieved if 90% confidence intervals (CIs) for geometric least squares mean ratios (GMRs) of PK parameter values for atogepant co-administered with esomeprazole to atogepant administered alone were within 80%-125%.
# [4] = po, mild hepatic impairment, single 60 mg oral dose
# [5] = po, moderate hepatic impairment, single 60 mg oral dose
# [6] = po, normal hepatic function, single 60 mg oral dose
# [7] = po, severe hepatic impairment, single 60 mg oral dose
# [8] = mild hepatic impairment vs normal hepatic function
# [9] = mild hepatic impairment, single 60 mg oral dose
# [10] = moderate hepatic impairment vs normal hepatic function
# [11] = moderate hepatic impairment, single 60 mg oral dose
# [12] = normal hepatic function, single 60 mg oral dose
# [13] = severe hepatic impairment vs normal hepatic function
# [14] = severe hepatic impairment, single 60 mg oral dose
smiles,measurement,setting,value
"C[C@@H]1[C@H](c2c(F)ccc(F)c2F)C[C@H](NC(=O)c2cnc3c(c2)C[C@@]2(C3)C(=O)Nc3ncccc32)C(=O)N1CC(F)(F)F [atogepant, (3′S)-N-[(3S,5S,6R)-6-methyl-2-oxo-1-(2,2,2-trifluoroethyl)-5-(2,3,6-trifluorophenyl)piperidin-3-yl]-2′-oxo-1′,2′,5,7-tetrahydrospiro[cyclopenta[b]pyridine-6,3′-pyrrolo[2,3-b]pyridine]-3-carboxamide]",tolerability,[1],well tolerated
same,inhibition of P-gp,P-gp,not an inhibitor
same,AUC(0-t),"[2]; oral, mild hepatic impairment, read-out: AUC0-t Geometric Least Squares Mean, Test",3250 ng·h/mL
same,AUC(0-inf),"[2]; oral, mild hepatic impairment, read-out: AUC0-∞ Geometric Least Squares Mean, Test",3270 ng·h/mL
same,Cmax,"[2]; oral, mild hepatic impairment, read-out: Cmax Geometric Least Squares Mean, Test",587 ng/mL
same,AUC(0-t),"[2]; oral, moderate hepatic impairment, read-out: AUC0-t Geometric Least Squares Mean, Test",2980 ng·h/mL
same,AUC(0-inf),"[2]; oral, moderate hepatic impairment, read-out: AUC0-∞ Geometric Least Squares Mean, Test",3030 ng·h/mL
same,Cmax,"[2]; oral, moderate hepatic impairment, read-out: Cmax Geometric Least Squares Mean, Test",475 ng/mL
same,AUC(0-t),"[2]; oral, normal hepatic function, read-out: AUC0-t Geometric Least Squares Mean, Reference",2610 ng·h/mL
same,AUC(0-inf),"[2]; oral, normal hepatic function, read-out: AUC0-∞ Geometric Least Squares Mean, Reference",2630 ng·h/mL
same,Cmax,"[2]; oral, normal hepatic function, read-out: Cmax Geometric Least Squares Mean, Reference",539 ng/mL
same,AUC(0-t),"[2]; oral, severe hepatic impairment, read-out: AUC0-t Geometric Least Squares Mean, Test",3600 ng·h/mL
same,AUC(0-inf),"[2]; oral, severe hepatic impairment, read-out: AUC0-∞ Geometric Least Squares Mean, Test",3630 ng·h/mL
same,Cmax,"[2]; oral, severe hepatic impairment, read-out: Cmax Geometric Least Squares Mean, Test",515 ng/mL
same,Tmax,"[2]; po, mild hepatic impairment vs normal hepatic function, read-out: difference in median Tmax",0 h
same,half-life,[2]; [4],8.7 ± 4.06 h
same,AUC(0-t),"[2]; po, mild hepatic impairment, single 60 mg oral dose, read-out: AUC0-t",3470 ± 1420 ng·h/mL
same,AUC(0-inf),"[2]; po, mild hepatic impairment, single 60 mg oral dose, read-out: AUC0-∞",3500 ± 1430 ng·h/mL
same,Cmax,"[2]; po, mild hepatic impairment, single 60 mg oral dose, read-out: Cmax",666 ± 372 ng/mL
same,Tmax,"[2]; po, mild hepatic impairment, single 60 mg oral dose, read-out: Tmax, median (range)",1.76 h
same,Vd/F,[2]; [4],249 ± 161 L
same,Tmax,"[2]; po, moderate hepatic impairment vs normal hepatic function, read-out: difference in median Tmax",0.25 h
same,half-life,[2]; [5],11.9 ± 7.6 h
same,AUC(0-t),"[2]; po, moderate hepatic impairment, single 60 mg oral dose, read-out: AUC0-t",3270 ± 1690 ng·h/mL
same,AUC(0-inf),"[2]; po, moderate hepatic impairment, single 60 mg oral dose, read-out: AUC0-∞",3310 ± 1680 ng·h/mL
same,Cmax,"[2]; po, moderate hepatic impairment, single 60 mg oral dose, read-out: Cmax",529 ± 227 ng/mL
same,Tmax,"[2]; po, moderate hepatic impairment, single 60 mg oral dose, read-out: Tmax, median (range)",1.5 h
same,Vd/F,[2]; [5],404 ± 406 L
same,half-life,[2]; [6],9.4 ± 3.24 h
same,AUC(0-t),"[2]; po, normal hepatic function, single 60 mg oral dose, read-out: AUC0-t",2760 ± 919 ng·h/mL
same,AUC(0-inf),"[2]; po, normal hepatic function, single 60 mg oral dose, read-out: AUC0-∞",2780 ± 924 ng·h/mL
same,Cmax,"[2]; po, normal hepatic function, single 60 mg oral dose, read-out: Cmax",589 ± 248 ng/mL
same,Tmax,"[2]; po, normal hepatic function, single 60 mg oral dose, read-out: Tmax, median (range)",1.75 h
same,Vd/F,[2]; [6],301 ± 77 L
same,Tmax,"[2]; po, severe hepatic impairment vs normal hepatic function, read-out: difference in median Tmax",0.75 h
same,half-life,[2]; [7],7.54 ± 2.95 h
same,AUC(0-t),"[2]; po, severe hepatic impairment, single 60 mg oral dose, read-out: AUC0-t",3800 ± 1400 ng·h/mL
same,AUC(0-inf),"[2]; po, severe hepatic impairment, single 60 mg oral dose, read-out: AUC0-∞",3840 ± 1440 ng·h/mL
same,Cmax,"[2]; po, severe hepatic impairment, single 60 mg oral dose, read-out: Cmax",525 ± 197 ng/mL
same,Tmax,"[2]; po, severe hepatic impairment, single 60 mg oral dose, read-out: Tmax, median (range)",1 h
same,Vd/F,[2]; [7],177 ± 47.5 L
same,higher AUC (total atogepant exposure increase),[2]; mild hepatic impairment (Child-Pugh Class A) vs normal hepatic function,24%
same,AUC0-t Ratio of Geometric Means Test/Reference,[2]; [8],124.40
same,AUC0-∞ Ratio of Geometric Means Test/Reference,[2]; [8],124.31
same,Cmax Ratio of Geometric Means Test/Reference,[2]; [8],108.97
same,change in maximum plasma concentration,[2]; [8],+9%
same,higher Cmax,[2]; [8],9%
same,AUC %,[2]; [9],0.73 ± 0.42%
same,CL/F,[2]; [9],19.42 ± 6.60 L/h
same,λz,[2]; [9],0.0906 ± 0.0300 h⁻¹
same,change in the PK of atogepant,"[2]; mild, moderate, or severe hepatic impairment",no clinically relevant change
same,higher AUC (total atogepant exposure increase),[2]; moderate hepatic impairment (Child-Pugh Class B) vs normal hepatic function,15%
same,AUC0-t Ratio of Geometric Means Test/Reference,[2]; [10],113.96
same,AUC0-∞ Ratio of Geometric Means Test/Reference,[2]; [10],115.00
same,Cmax Ratio of Geometric Means Test/Reference,[2]; [10],88.17
same,change in maximum plasma concentration,[2]; [10],−12%
same,lower Cmax,[2]; [10],12%
same,AUC %,[2]; [11],1.70 ± 1.44%
same,CL/F,[2]; [11],21.33 ± 8.06 L/h
same,λz,[2]; [11],0.0781 ± 0.0431 h⁻¹
same,AUC %,[2]; [12],0.81 ± 0.23%
same,CL/F,[2]; [12],24.20 ± 9.42 L/h
same,λz,[2]; [12],0.0819 ± 0.0289 h⁻¹
same,increase in AUC (total atogepant exposure increase),[2]; severe hepatic impairment (Child-Pugh Class C) vs normal hepatic function,38%
same,AUC0-t Ratio of Geometric Means Test/Reference,[2]; [13],137.88
same,AUC0-∞ Ratio of Geometric Means Test/Reference,[2]; [13],137.97
same,Cmax Ratio of Geometric Means Test/Reference,[2]; [13],95.71
same,change in maximum plasma concentration,[2]; [13],−4%
same,decrease in Cmax,[2]; [13],4%
same,AUC %,[2]; [14],0.87 ± 0.65%
same,CL/F,[2]; [14],17.33 ± 5.40 L/h
same,λz,[2]; [14],0.0998 ± 0.0242 h⁻¹
same,reduced Cmax,[3]; coadministration with esomeprazole,23%
same,Tmax,"[3]; 60 mg, atogepant 60 mg alone, read-out: median plasma atogepant tmax",1.51 h
same,Tmax,"[3]; atogepant 60 mg coadministered with esomeprazole 40 mg, read-out: median plasma atogepant tmax",3 h
same,Tmax,"[3]; coadministration with esomeprazole vs alone, read-out: delay of median tmax",1.5 h
